Each structure is given as a SMILES string. Where two headings read alike, the source gives them in different places.

In experiment [1] the target is T1, human adrenergic-α2A receptor (Homo sapiens, UniProt P08913).
T1 construct: expressed in transfected cells; host or cells: CHO cells, stably transfected; membranes
T1 sequence (P08913 1-465): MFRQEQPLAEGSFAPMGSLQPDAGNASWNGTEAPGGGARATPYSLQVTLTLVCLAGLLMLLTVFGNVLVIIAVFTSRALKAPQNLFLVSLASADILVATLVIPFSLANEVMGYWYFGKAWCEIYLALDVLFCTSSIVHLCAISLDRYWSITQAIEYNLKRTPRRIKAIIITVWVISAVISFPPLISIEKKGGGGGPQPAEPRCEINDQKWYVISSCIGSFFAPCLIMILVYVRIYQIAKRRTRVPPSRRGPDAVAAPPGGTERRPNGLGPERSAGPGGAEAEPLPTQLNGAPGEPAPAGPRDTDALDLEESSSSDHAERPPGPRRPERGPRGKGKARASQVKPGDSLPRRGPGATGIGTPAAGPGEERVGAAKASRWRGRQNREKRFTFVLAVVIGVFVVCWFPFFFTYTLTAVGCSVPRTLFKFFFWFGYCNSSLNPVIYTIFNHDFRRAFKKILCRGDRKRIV
Kind of experiment: Radioligand binding experiment for hα2A receptor ([3H]raulwolscine, CHO cell membranes). Here is the method: (§1) The interaction of a compound of Formula (I) with α2C-adrenoceptor receptors was assessed in in vitro radioligand binding experiments. In general, a low concentration of a radioligand with a high binding affinity for a particular receptor or transporter is incubated with a sample of a tissue preparation enriched in a particular receptor or transporter or with a preparation of cells expressing cloned human receptors in a buffered medium. During the incubation, the radioligand binds to the receptor or transporter. When equilibrium of binding is reached, the receptor bound radioactivity is separated from the non-bound radioactivity, and the receptor- or transporter-bound activity is counted. The interaction of the test compounds with the receptor is assessed in competition binding experiments. Various concentrations of the test compound are added to the incubation mixture containing the receptor- or transporter preparation and the radioligand. The test compound in proportion to its binding affinity and its concentration inhibits binding of the radioligand. The radioligand used for hα2A and hα2C receptor binding was [^3H]-raulwolscine.
(§2) CHO cells, stabile transfected with human adrenergic-α2A and α2C receptor cDNA, were cultured in Dulbecco's Modified Eagle's Medium (DMEM)/Nutrient mixture Ham's F12 (ratio 1:1) (Gibco, Gent-Belgium) supplemented with 10% heat inactivated fetal calf serum (Life Technologies, Merelbeke-Belgium) and antibiotics (100 IU/ml penicillin G, 100 μg/ml streptomycin sulphate, 110 μg/ml pyruvic acid and 100 μg/ml L-glutamine). One day before collection, cells were induced with 5 mM sodiumbutyrate. Upon 80-90% of confluence, cells were scraped in phosphate buffered saline without Ca^2+ and Mg^2+ and collected by centrifugation at 1500×g for 10 minutes. The cells were homogenised in Tris-HCl 50 mM using an Ultraturrax homogenizer and centrifuged for 10 minutes at 23,500×g. The pellet was washed once by resuspension and rehomogenization and the final pellet was resuspended in Tris-HCl, divided in 1 ml aliquots and stored at −70° C.
(§3) Membranes were thawed and re-homogenized in incubation buffer (glycylglycine 25 mM, pH 8.0). […] Filters were rinsed extensively with ice-cold rinsing buffer (Tris-HCl 50 mM pH 7.4). Filter-bound radioactivity was determined by scintillation counting in a Topcount (Packard, Meriden, Conn.) and results were expressed as counts per minute (cpm). Non-specific binding was determined in the presence of 1 μM oxymetazoline for the hα2A receptor and 1 μM spiroxatrine for hα2C receptors.
(§4) Data from assays in the presence of compound were calculated as a percentage of total binding measured in the absence of test compound. Inhibition curves, plotting percent of total binding versus the log value of the concentration of the test compound, were automatically generated, and sigmoidal inhibition curves were fitted using non-linear regression. The pIC50 values of test compounds were derived from individual curves.

Experiment [2] concerns the target T2, human adrenergic-α2C receptor (Homo sapiens, UniProt P18825).
T2 construct: expressed in transfected cells; host or cells: CHO cells, stably transfected; membranes
T2 sequence (P18825 1-462): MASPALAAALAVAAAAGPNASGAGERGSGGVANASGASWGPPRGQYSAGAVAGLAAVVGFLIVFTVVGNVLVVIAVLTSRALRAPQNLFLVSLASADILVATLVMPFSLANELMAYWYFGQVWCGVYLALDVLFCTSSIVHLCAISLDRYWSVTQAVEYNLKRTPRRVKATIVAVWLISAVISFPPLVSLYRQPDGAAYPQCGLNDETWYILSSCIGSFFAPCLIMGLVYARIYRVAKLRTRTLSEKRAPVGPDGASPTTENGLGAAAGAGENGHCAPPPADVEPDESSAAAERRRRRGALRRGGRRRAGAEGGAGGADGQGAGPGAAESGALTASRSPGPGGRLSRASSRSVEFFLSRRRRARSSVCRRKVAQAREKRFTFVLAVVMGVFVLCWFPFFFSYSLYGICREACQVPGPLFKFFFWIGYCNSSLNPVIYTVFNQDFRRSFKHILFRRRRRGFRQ
Kind of experiment: Radioligand binding experiment for α2C-adrenoceptor ([3H]raulwolscine, CHO cell membranes). Here is the method:
as §1, §2, §3, §4

The target of experiment [3] is T3, 5HT-Transporter (Homo sapiens, UniProt P31645).
T3 construct: Human platelet membranes (Oceanix Biosciences Corporation, Hanover, Md., USA) were thawed; tissue Oceanix Biosciences Corporation; host or cells: human platelet membranes
The experiment in a line: Binding experiment for the 5HT-transporter ([3H]paroxetine, human platelet membranes). Here is the method: as §1
Human platelet membranes (Oceanix Biosciences Corporation, Hanover, Md., USA) were thawed, diluted in buffer (Tris-HCl 50 mM, 120 mM NaCl and 5 mM KCl) and quickly (max 3 s) homogenised with an Ultraturrax homogenizer. […] Incubation was stopped by rapid filtration of the incubation mixture over GF/B filters, pre-wetted with 0.1% polyethyleneamine, using a Filtermate196 harvester (Packard, Meriden, Conn.). Filters were rinsed extensively with ice-cold buffer and radioactivity on the filters was counted in a Topcount liquid scintillation counter (Packard, Meriden, Conn.). Data were expressed as cpm. Imipramine (at 1 μM final concentration) was used to determine the non-specific binding.
as §4

[4] abbreviates: [3H]raulwolscine 1 nM, membranes of CHO cells transfected with human α2A receptor, read-out: h-α2A pIC50 (converted).
Where [5] appears, read: [3H]raulwolscine 1 nM, membranes of CHO cells transfected with human α2C receptor, read-out: h-α2C pIC50 (converted).
Setting [6] is: [3H]paroxetine 0.5 nM, read-out: h-5HTT pIC50 (converted).
Where [7] appears, read: h-5HTT pIC50, [3H]paroxetine 0.5 nM.

T3 sequence (P31645 whole entry): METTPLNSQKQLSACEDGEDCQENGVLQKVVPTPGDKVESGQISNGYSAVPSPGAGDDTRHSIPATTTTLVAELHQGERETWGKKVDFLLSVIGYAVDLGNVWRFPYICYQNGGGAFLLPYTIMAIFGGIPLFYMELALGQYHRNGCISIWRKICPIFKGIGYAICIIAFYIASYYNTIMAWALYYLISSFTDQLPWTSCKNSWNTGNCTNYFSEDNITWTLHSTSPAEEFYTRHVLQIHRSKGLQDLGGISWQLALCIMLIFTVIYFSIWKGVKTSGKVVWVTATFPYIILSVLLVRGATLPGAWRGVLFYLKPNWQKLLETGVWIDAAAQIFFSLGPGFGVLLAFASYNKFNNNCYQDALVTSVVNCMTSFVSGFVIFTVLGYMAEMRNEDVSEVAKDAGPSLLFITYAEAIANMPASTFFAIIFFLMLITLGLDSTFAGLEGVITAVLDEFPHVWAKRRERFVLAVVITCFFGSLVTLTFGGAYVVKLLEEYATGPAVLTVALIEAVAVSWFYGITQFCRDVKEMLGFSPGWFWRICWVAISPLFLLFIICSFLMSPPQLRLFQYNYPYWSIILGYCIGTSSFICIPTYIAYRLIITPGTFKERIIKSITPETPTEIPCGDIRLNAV

As for `C=CCn1ccnc(N2CCN(Cc3cccc(-c4ccccc4)c3)CC2)c1=O` [Compound 3-4], the IC50 in experiment [1] (setting [4]) was 200 nM; in experiment [2] (setting [5]), 794 nM.
On to `CC(C)(C)OC(=O)NCc1ccc(Cn2ccnc(N3CCN(Cc4cccc(-c5ccccc5)c4)CC3)c2=O)cc1` [Compound 3-2], for which the IC50 in experiment [1] (setting [4]) is 200 nM; in experiment [2] (setting [5]), 251 nM; in experiment [3] (setting [6]) it was 6.31 µM.
As to `O=C1c2ccccc2C(=O)N1CCCn1ccnc(NC2CCN(CCCc3ccccc3)CC2)c1=O` [Compound 7-5], the IC50 was 501 nM in experiment [1], 20 nM in experiment [2] and 1 µM in experiment [3] (setting [7]).
Consider `CSCCn1ccnc(NC2CCN(CCCc3ccccc3)CC2)c1=O` [Compound 7-15], for which the IC50 in experiment [1] (setting [4]) was 1000 nM; in experiment [2] (setting [5]), 398 nM; in experiment [3] (setting [6]), 3.16 µM.
With `CC(C)(C)C(=O)Cn1ccnc(NC2CCN(CCCc3ccccc3)CC2)c1=O` [Compound 7-10], the figures for the IC50 in experiment [1] (setting [4]), in experiment [2] (setting [5]) and in experiment [3] (setting [6]) were 1260 nM, 316 nM and > 10 µM, respectively.
As for `O=c1c(N2CCN(Cc3cccc(-c4ccccc4)c3)CC2)nccn1Cc1ccc2ccccc2c1` [Compound 3-7], the IC50 is 200 nM in experiment [1] (setting [4]) and 5.01 µM in experiment [3] (setting [6]).
For `NCc1ccc(Cn2ccnc(N3CCN(Cc4cccc(-c5ccccc5)c4)CC3)c2=O)cc1` [Compound 3-1], the IC50 in experiment [1] (setting [4]) was 79.4 nM; in experiment [2] (setting [5]), 631 nM; in experiment [3] (setting [6]), 5.01 µM.
On to `CC(C)(C)OC(=O)NCCCn1ccnc(NC2CCN(CCc3ccccc3)CC2)c1=O` [Compound 6-4], for which the IC50 in experiment [1] (setting [4]) is 3160 nM; in experiment [2] (setting [5]) it was 631 nM; in experiment [3] (setting [6]), > 10 µM.
The like results for `O=c1c(NC2CCN(CCc3ccccc3)CC2)nccn1Cc1ccccc1Br` [Compound 6-7] were, in that order, 794 nM, 398 nM and 5.01 µM.
For the compound `NCCCn1ccnc(NC2CCN(CCc3ccccc3)CC2)c1=O` [Compound 6-1], the IC50 in experiment [1] is 3980 nM; in experiment [3] (setting [7]), > 10 µM.
As for `O=c1c(NC2CCN(Cc3ccc(-c4ccccc4)cc3)CC2)nccn1CCN1CCCCC1` [Compound 1-3], the IC50 in experiment [1] (setting [4]) is 501 nM; in experiment [2] (setting [5]), 100 nM; in experiment [3] (setting [6]), 2.51 µM.
For `CN(C)CCCn1ccnc(NC2CCN(Cc3ccc(OCc4ccccc4)cc3)CC2)c1=O` [Compound 11-2], in that order: 794 nM, 794 nM and > 10 µM.
As for `CC(C)(C)OC(=O)NCc1ccc(Cn2ccnc(NC3CCN(CCCc4ccccc4)CC3)c2=O)cc1` [Compound 7-3], the IC50 was 1580 nM in experiment [1] (setting [4]), 398 nM in experiment [2] (setting [5]) and 1.58 µM in experiment [3] (setting [6]).
The like results for `O=C1c2ccccc2C(=O)N1CCCn1ccnc(NC2CCN(CCc3ccccc3)CC2)c1=O` [Compound 6-6] were, in that order, 3980 nM, 158 nM and 1.58 µM.
`O=C(Cn1ccnc(N2CCN(CCc3ccccc3)CC2)c1=O)c1ccccc1` [Compound 10-7]: the figures for the IC50 in experiment [1] (setting [4]) and in experiment [3] (setting [6]) were 2000 nM and > 10 µM, respectively.
Take `NCc1ccc(Cn2ccnc(NC3CCN(Cc4ccc(-c5ccccc5)cc4)CC3)c2=O)cc1` [Compound 1-1]: the IC50 in experiment [1] (setting [4]) was 251 nM; in experiment [2] (setting [5]), 251 nM; in experiment [3] (setting [6]), 0.501 µM.
For `CC(C)(C)OC(=O)NCc1ccc(Cn2ccnc(N3CCC(c4ccccc4)CC3)c2=O)cc1` [Compound 4-3], the IC50 was 200 nM in experiment [1] (setting [4]), 631 nM in experiment [2] (setting [5]) and > 10 µM in experiment [3] (setting [6]).
For `O=C(Cn1ccnc(NC2CCN(CCCc3ccccc3)CC2)c1=O)c1ccccc1` [Compound 7-14], in that order: 501 nM, 398 nM and 3.98 µM.
On to `O=c1c(NC2CCN(Cc3ccc(OCc4ccccc4)cc3)CC2)nccn1CCN1CCCCC1` [Compound 11-4], for which the values for the IC50 in experiment [1] (setting [4]), in experiment [2] (setting [5]) and in experiment [3] (setting [6]) were 1580 nM, 794 nM and > 10 µM, respectively.
Consider `NCc1ccc(CN(c2nccn(Cc3ccc(CN)cc3)c2=O)C2CCN(Cc3ccccc3)CC2)cc1` [Compound 5-3], for which the IC50 is 1000 nM in experiment [1] (setting [4]) and > 10 µM in experiment [3] (setting [6]).
With `COc1ccc(-c2nnc(Cn3ccnc(N4CCN(CCc5ccccc5)CC4)c3=O)o2)cc1` [Compound 10-12], the results for the IC50 in experiment [1] (setting [4]), in experiment [2] (setting [5]) and in experiment [3] (setting [6]) were 1260 nM, 501 nM and > 10 µM, respectively.
For `NCc1ccc(Cn2ccnc(NC3CCN(Cc4ccc(OCc5ccccc5)cc4)CC3)c2=O)cc1` [Compound 11-1], the results for the IC50 in experiment [1] (setting [4]), in experiment [2] (setting [5]) and in experiment [3] (setting [6]) were 251 nM, 631 nM and 2 µM, respectively.
For `NCc1ccc(Cn2ccnc(NC3CCN(Cc4ccccc4)CC3)c2=O)cc1` [Compound 5-1], in experiment [3] (setting [6]), the IC50 was 7.94 µM.
On to `COc1ccc(-c2nnc(Cn3ccnc(N4CCN(Cc5cccc(-c6ccccc6)c5)CC4)c3=O)o2)cc1` [Compound 3-10], for which the IC50 was 501 nM in experiment [1] (setting [4]) and 6.31 µM in experiment [3] (setting [6]).
For `O=c1c(NC2CCN(Cc3ccccc3)CC2)nccn1CCN1CCCCC1` [Compound 5-4], in that order: 3160 nM and > 10 µM.
`CC(C)(C)OC(=O)NCc1ccc(Cn2ccnc(N3CCN(CCc4ccccc4)CC3)c2=O)cc1` [Compound 10-3]: the results for the IC50 in experiment [1] (setting [4]) and in experiment [2] (setting [5]) were 794 nM and 316 nM, respectively.
Turning to `NCc1ccc(Cn2ccnc(NC3CCN(CCc4ccccc4)CC3)c2=O)cc1` [Compound 6-2], the IC50 in experiment [3] (setting [6]) was 3.98 µM.
On to `NCCCn1ccnc(NC2CCN(CC(c3ccccc3)c3ccccc3)CC2)c1=O` [Compound 9-1], for which the IC50 is 1000 nM in experiment [1] (setting [4]) and 501 nM in experiment [2] (setting [5]).
For `O=c1c(N2CCN(Cc3ccccc3)CC2)nccn1Cc1ccc2ccccc2c1` [Compound 10-9], in that order: 126 nM and 794 nM.
The like results for `O=c1c(N2CCN(Cc3cccc(-c4ccccc4)c3)CC2)nccn1Cc1ccco1` [Compound 3-8] were, in that order, 79.4 nM and 316 nM.

These data come from patent US20100105694A1, “SUBSTITUTED PYRAZINONE DERIVATIVES FOR USE AS A MEDICINE” (priority 2006, published 2010).
